Measured values from ChEMBL document CHEMBL1201862, “PubChem BioAssay data set” (2004).
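Step 1: Grow cells in 96-well plates. Step 2: Expose to compound for 48 hours at 5 concentrations. Step 3: Interpolate endpoints linearly; if unreached, use highest concentration. GI50 marks 50% less growth.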 Calls of active or inactive are those of the source. Rule as the data show it: active = GI50 up to about 1.1 µM and inactive = higher.

Columns and labels:
Test in all cases: growth of human tumour cells (NCI), 48 h
MDA-MB-231 = test system: MDA-MB-231
OVCAR-5 = test system: OVCAR-5
Hs-578T = test system: Hs-578T
M14 = test system: M14
HOP-92 = test system: HOP-92
TK-10 = test system: TK-10
A549 = test system: A549
CAKI-1 = test system: CAKI-1
SNB-75 = test system: SNB-75
SK-MEL-28 = test system: SK-MEL-28
SW-620 = test system: SW-620
Malme-3M = test system: Malme-3M
COLO 205 = test system: COLO 205
SF-539 = test system: SF-539
A498 = test system: A498
HT-29 = test system: HT-29
CCRF-CEM = test system: CCRF-CEM
MDA-MB-435 = test system: MDA-MB-435
BT-549 = test system: BT-549
EKVX = test system: EKVX

Row | Compound | GI50 (MDA-MB-231) | GI50 (OVCAR-5) | GI50 (Hs-578T) | GI50 (M14) | GI50 (HOP-92) | GI50 (TK-10) | GI50 (A549) | GI50 (CAKI-1) | GI50 (SNB-75) | GI50 (SK-MEL-28) | GI50 (SW-620) | GI50 (Malme-3M) | GI50 (COLO 205) | GI50 (SF-539) | GI50 (A498) | GI50 (HT-29) | GI50 (CCRF-CEM) | GI50 (MDA-MB-435) | GI50 (BT-549) | GI50 (EKVX)
1 | Cc1cccc2c(=O)c3c(O)cc(O)cc3n(C)c12 | > 100 µM (inactive) | > 100 µM (inactive) | 6.37 µM (inactive) | > 100 µM (inactive) | 91.4 µM (inactive) | > 100 µM (inactive) | > 100 µM (inactive) | > 100 µM (inactive) | 85.7 µM (inactive) | > 100 µM (inactive) | > 100 µM (inactive) | > 100 µM (inactive) | > 100 µM (inactive) | > 100 µM (inactive) | 7.29 µM (inactive) | > 100 µM (inactive) | > 100 µM (inactive) | > 100 µM (inactive) | > 100 µM (inactive) | 7.41 µM (inactive)
2 | COc1cnnc2c(C)c(-c3ccccc3)nn12 | > 61.9 µM (inactive) | > 100 µM (inactive) | > 66.1 µM (inactive) | > 68.4 µM (inactive) | 59.3 µM (inactive) | > 100 µM (inactive) | > 95.9 µM (inactive) | 57 µM (inactive) | 20 µM (inactive) | 71.9 µM (inactive) | > 100 µM (inactive) | 39.6 µM (inactive) | > 100 µM (inactive) | > 100 µM (inactive) | 29.2 µM (inactive) | > 100 µM (inactive) | > 73.1 µM (inactive) | 77.4 µM (inactive) | > 100 µM (inactive) | > 100 µM (inactive)
3 | O=C(N/N=C\c1cccc2c([N+](=O)[O-])cccc12)Nc1ccccc1 | 17.8 µM (inactive) | 15.1 µM (inactive) | 13.2 µM (inactive) | 12.9 µM (inactive) | 12.3 µM (inactive) | 11.7 µM (inactive) | 10.3 µM (inactive) | 12.5 µM (inactive) | 22.3 µM (inactive) | 16.4 µM (inactive) | 13.2 µM (inactive) | 14.1 µM (inactive) | 18.5 µM (inactive) | 11.5 µM (inactive) | 16.5 µM (inactive) | 14.8 µM (inactive) | 10.5 µM (inactive) | 9.29 µM (inactive) | 8.95 µM (inactive) | 15.5 µM (inactive)
4 | CCCC(=O)Nc1cc(/C=C/C(=O)N2CC(CCl)c3ccc(N)cc32)n(C)c1 (stereo not given) | 0.275 µM (active) | 0.375 µM (active) | 0.277 µM (active) | 0.337 µM (active) | 0.0964 µM (active) | 0.112 µM (active) | 0.0294 µM (active) | 0.0441 µM (active) | 0.388 µM (active) | 0.292 µM (active) | 0.29 µM (active) | 0.18 µM (active) | 0.134 µM (active) | 0.22 µM (active) | 0.0223 µM (active) | 0.284 µM (active) | 0.195 µM (active) | 0.256 µM (active) | 0.193 µM (active) | 0.368 µM (active)
5 | COc1cc2c(/C=C3/C(=O)N(C)c4ccc(O)cc43)c(Cl)[nH]c2cc1C | 0.738 µM (active) | 3.79 µM (inactive) | 0.269 µM (active) | 0.238 µM (active) | 17.2 µM (inactive) | 2.81 µM (inactive) | 0.667 µM (active) | 0.394 µM (active) | 0.439 µM (active) | 2.22 µM (inactive) | 0.361 µM (active) | 0.179 µM (active) | 0.414 µM (active) | 0.248 µM (active) | 2.06 µM (inactive) | 0.401 µM (active) | 0.284 µM (active) | 0.0284 µM (active) | 0.811 µM (active) | 1.57 µM (inactive)
